Data taken from patent US10111950B2, “Modified glycolipids and methods of making and using the same” (Vaccinex, Inc., priority 2013, dated 2018).

Tests used:
[1] = target: T1, plate bound mCD1d (Mus musculus, UniProt P11609); assay: Ligand binding to plate bound mCD1d with and without UV activation, ELISA using mAb L363; design: species or system murine; settings: for dissociation of CD1d:glycolipid complex after 3 days (L363 ELISA): 3 days in PBS+0.05% Triton X-100 at 25° C.
T1 construct: recombinant soluble murine CD1d (mCD1d) was diluted to 400 μg/ml in PBS pH 7.2
T1 sequence (P11609 22-305 limits assumed): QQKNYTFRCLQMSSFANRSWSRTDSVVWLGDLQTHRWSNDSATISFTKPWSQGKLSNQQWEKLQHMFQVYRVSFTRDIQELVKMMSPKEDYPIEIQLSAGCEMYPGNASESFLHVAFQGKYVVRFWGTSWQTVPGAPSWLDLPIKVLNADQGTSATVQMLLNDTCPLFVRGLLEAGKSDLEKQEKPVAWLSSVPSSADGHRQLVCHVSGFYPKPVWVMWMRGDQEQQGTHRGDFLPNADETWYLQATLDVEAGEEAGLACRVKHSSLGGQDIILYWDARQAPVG
T1 sequence (P01887 21-119 partner): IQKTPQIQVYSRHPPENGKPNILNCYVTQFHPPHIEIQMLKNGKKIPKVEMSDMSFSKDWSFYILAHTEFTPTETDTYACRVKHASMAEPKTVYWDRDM
Description: (§1) The ligand binding affinity of plate bound mCD1d was measured by ELISA using mAb L363 to detect murine CD1d/αGalCer complexes. ELISA plates were coated with mCD1d (10 μg/ml, 30 μl/well) overnight at 4° C. in PBS pH 8.2. Supernatant was then removed along with any unbound protein. Glycolipids (5 μM, 30 μl/well) were loaded and allowed to incubate overnight at 25° C. Supernatant was again removed and the complexes were washed three times with PBS to remove any unbound glycolipid. For those complexes that underwent UV activation, UV crosslinking was performed in solution (30 μl/well PBS) and at a fixed wavelength of 365 nm from a UV lamp (RAD-FREE long wave UV lamp, Schleicher & Schuell). The UV lamp was placed one inch from the sample and the sample was allowed to sit on ice for 1 hr.

[2] = tested on: iNKT hybridoma DN3A4-1.2 with plate bound mCD1d; assay: Plate bound mCD1d:glycolipid complexes with and without UV activation, iNKT DN3A4-1.2 hybridoma stimulation assay (IL-2 ELISA); format: cell-based, murine; settings: for iNKT stimulation post-dissociation (IL-2 ELISA): after 3 days dissociation, non-crosslinked mCD1d complexes (UV state not stated for 7DW8-5)
Description: (§2) The ligand binding affinity of plate bound mCD1d was detected by iNKT DN3A4-1.2 hybridoma stimulation assay. mCD1d (10 μg/ml) was loaded with glycolipids (5 μM) overnight at 25° C. ELISA plates were coated with mCD1d:GC complexes (2.5 μg/ml, 30 μl/well) for 12-18 hours at 4° C. in PBS pH 8.2. Supernatant was then removed and the complexes were washed three times with PBS to remove any unbound glycolipid and protein. For those complexes that underwent UV activation, UV crosslinking was performed in solution (30 μl/well PBS) and at a fixed wavelength of 365 nm from a UV lamp (RAD-FREE long wave UV lamp, Schleicher & Schuell). The UV lamp was placed one inch from the sample and the sample was allowed to sit on ice for 1 hr. Supernatant was then removed and the complexes were washed three times with PBS to remove any unbound glycolipid and protein.

[3] = tested on: mCD1d.CEA fusion protein; assay: Direct comparison of DB12-8 and 7DW8-5 complexes with mCD1d.CEA fusion protein, L363 ELISA; format: binding, murine
Description: as §1, §2
mCD1d.CEA (10 μg/ml), a recombinant mCD1d protein genetically fused with a single chain Fv antibody fragment specific for the tumor associated antigen CEA, was loaded with glycolipids (5 μM) overnight at 25° C. in PBS pH8.2 with 0.05% tyloxapol. The mCD1d.CEA:GC complexes (10 μg/ml, 30 μl/well) were coated onto wells of high binding ELISA 96 well plates overnight at 4° C. UV exposure and incubation to allow dissociation over 3 days were performed as described in Examples 6 and 7.
A scale up of the complex formation in solution was performed using a 10-fold increased concentration of protein and glycolipid and the results are shown in FIG. 9C-9D. mCD1d.CEA (100 μg/ml) was loaded with DB12-8 (50 μM respectively) overnight at 25° C. in PBS pH8.2 with 0.05% tyloxapol. DB12-8:mCD1d.CEA complexes were diluted down to 10 μg/ml and were coated onto the high binding ELISA plates (30 μl/well), overnight at 4° C. UV exposure and incubation to allow dissociation over 3 days were performed as described in Examples 6 and 7.

[4] = target: T2, soluble recombinant mCD1d (Mus musculus, UniProt P11609); assay: Direct comparison of DB12-8 and 7DW8-5 complexes with soluble recombinant mCD1d, L363 ELISA; format: binding, murine
T2 construct: A soluble recombinant mCD1d protein (10 μg/ml) was loaded with glycolipids
T2 sequence (P11609 22-305 limits assumed): T1 sequence (P11609 22-305 limits assumed)
T2 sequence (P01887 21-119 partner): T1 sequence (P01887 21-119 partner)
Description: as §1, §2
A soluble recombinant mCD1d protein (10 μg/ml) was loaded with glycolipids (5 μM) overnight at 25° C. in PBS pH8.2 with 0.05% tyloxapol. The mCD1d:GC complexes (10 μg/ml, 30 μl/well) were coated onto the high binding ELISA plates, overnight at 4° C. UV exposure and incubation to allow dissociation over 3 days was performed as described in Examples 6 and 7.

[5] = tested on: iNKT hybridoma DN3A4-1.2 with murine CD1d-expressing antigen presenting cells; assay: iNKT hybridoma stimulation (IL-2 secretion) with mCD1d expressing BMDCs; format: cell-based, mouse; settings: BMDCs from C57BL/6 mice, BPGC 5 to 0.01 μg/ml for 3 hrs, hybridoma 18 hrs
Description: The activated natural killer cells were calculated based on those secreting IL-2. Specifically, bone marrow-derived dendritic cells (BMDCs) from C57BL/6 mice (10,000 cells in 100 μl culture medium) were plated in wells of a 96 well tissue culture plate and allowed to adhere to the plates for 30 minutes at 37° C. The cultures were then exposed to varying BPGC concentrations ranging between 5 and 0.01 μg/ml in 100 μl for 3 hrs at 37° C. Glycolipids not taken up by BMDCs were removed by washing with culture medium. To detect the BPGC presentation by CD1d, iNKT hybridoma DN3A4-1.2 (5000 cells in 100 μl volume) was added and the stimulation was detected by the level of IL-2 secreted in the supernatant following 18 hrs of incubation at 37° C.

[6] = tested on: iNKT hybridoma DN3A4-1.2 with human CD1d transfected HeLa cells; assay: iNKT hybridoma stimulation (IL-2 secretion) with hCD1d expressing HeLa cells; format: cell-based; settings: BPGC 5 to 0.01 μg/ml for 3 hrs, hybridoma 18 hours
Description: The activated natural killer cells were again calculated based on those secreting IL-2. Specifically, plate bound human CD1d transfected HeLa cells (10,000 cells in 100 μl medium) were plated in a 96 well tissue culture plate and allowed to adhere to the plates for 30 minutes at 37° C. Adherent HeLa cells were treated with varying BPGC concentrations ranging between 5 and 0.01 μg/ml in 100 μl for 3 hrs at 37° C. Glycolipid not taken up by cells was removed by washing with medium. To detect the BPGC presentation by CD1d, iNKT hybridoma DN3A4-1.2 (5000 cells in 100 μl volume) was added and the stimulation was detected by the level of IL-2 secreted in the supernatant following incubation at 37° C. for 18 hours.

[7] = target: T3, mouse CD1d (Mus musculus, UniProt P11609); assay: Tryptophan fluorescence quenching of mCD1d by glycolipid binding; settings: protein 0.1 μM, glycolipid 4 μM, 25° C., excited at λ295
T3 construct: recombinant soluble murine CD1d (mCD1d) was diluted to 400 μg/ml in PBS pH 7.2
T3 sequence (P11609 22-305 limits assumed): T1 sequence (P11609 22-305 limits assumed)
T3 sequence (P01887 21-119 partner): T1 sequence (P01887 21-119 partner)
Description: The effect of glycolipid binding to mouse CD1d was tested. Fluorescence quenching of mCD1d due to glycolipid binding was measured using a Horibo Jobin Yvon Fluoromax-3 fluorescent spectrophotometer and the data were analyzed using FluorEssence software. Protein (0.1 μM) was mixed either with glycolipid antigens (at 4 μM) or the ligand vehicle in a quartz cuvette 1 cm wide, to a final volume of 100 μl and placed in the spectrometer already set at 25° C. The samples were excited at λ295 and emission measured from […] to λ400.

SMILES	dissociation of CD1d:glycolipid complex after 3 days (L363 ELISA) ([1]; UV irradiated 365 nm 1 hr)	dissociation of CD1d:glycolipid complex after 3 days (L363 ELISA) ([1]; not UV irradiated)	iNKT stimulation post-dissociation (IL-2 ELISA) [2]	dissociation after 3 days (L363 ELISA signal) ([3]; UV exposure at 365 nm)	affinity to CD1d, complex detected by L363 ELISA ([3]; mCD1d.CEA 10 μg/ml, glycolipid 5 μM)	dissociation after 3 days (L363 ELISA signal) ([3]; non UV-crosslinked state)	dissociation after 3 days (L363 ELISA signal) ([4]; UV exposure at 365 nm)	affinity to CD1d, complex detected by L363 ELISA ([4]; mCD1d 10 μg/ml, glycolipid 5 μM)	dissociation after 3 days (L363 ELISA signal) ([4]; non UV-crosslinked state)	CD1d/glycolipid complex formation detected by mAb L363 ELISA ([1]; plate bound mCD1d 10 μg/ml, glycolipid 5 μM)	iNKT hybridoma stimulation following UV crosslinking (IL-2 ELISA) ([2]; UV crosslinked 365 nm 1 hr)	iNKT stimulation, level of IL-2 secreted in the supernatant [5]	iNKT stimulation, level of IL-2 secreted in the supernatant [6]	fluorescence quenching of mCD1d due to glycolipid binding [7]
CCCCCCCCCCCCCC[C@@H](O)[C@@H](O)[C@H](CO[C@H]1O[C@H](CO)[C@H](O)[C@H](O)[C@H]1O)NC(=O)CCCCCCCCCCc1ccc(F)cc1 [Compound 7DW8-5, reference compound]	dissociated after 3 days	dissociated after 3 days	did not stimulate iNKT post-dissociation	almost complete loss of signal	showed affinity to CD1d	almost complete loss of signal	almost complete loss of signal	showed affinity to CD1d	almost complete loss of signal					
CCCCCCCCCCCCCC[C@@H](O)[C@@H](O)[C@H](COC1OC(CO)C(O)C(O)C1O)NC(=O)CCCCCCCCCOCc1cccc(C(=O)c2ccccc2)c1 (stereo partly drawn) [DB11-2]	no significant dissociation		some, albeit reduced, iNKT stimulation even after dissociation							highest levels of immunoreactive complex formation	second best stimulator	stimulated iNKTs most efficiently at a low concentration of 0.1 μg/ml	stimulatory toward iNKT cells	
CCCCCCCCCCCCCC[C@@H](O)[C@@H](O)[C@H](COC1OC(CO)C(O)C(O)C1O)NC(=O)CCCCCCCCOCc1cccc(C(=O)c2ccccc2)c1 (stereo partly drawn) [DB12-7]			some, albeit reduced, iNKT stimulation even after dissociation									lower but still significant IL-2 secretion		greatest quenching
